The values below are quoted from earlier work in patent publication US20090029020A1, “CYCLODEXTRIN INCLUSION COMPLEXES AND METHODS OF PREPARING SAME” (CARGILL, INCORPORATED, priority 2005, published 2009).

Broadly, the log P is the decadic logarithm of the partition coefficient of the neutral form, usually between octanol and water.

Read-outs that look alike come from different tables or passages of the source. Residues, ends and D or L forms follow the SMILES beside them.

The conditions of the data set: octanol/water partition coefficient.

Regarding `CC=O` [acetaldehyde], the “log P” value is, setting by setting: (Table 1A) −0.17; (Table 9) −0.17.
As to `COC(=O)[C@H](Cc1ccccc1)NC(=O)[C@@H](N)CC(=O)O` [aspartame] (H-Asp-Phe-OMe), the “log P” value by setting is: (Table 1A) 0.07; (Table 9) 0.07.
In the case of `ClC1CCCCC1` [chlorocyclohexane (CCH), chlorocyclohexane], the “log P” value was 3.36 (Table 1A) and 3.36 (Table 9).
Turning to `CN(CC(=O)O)C(=N)N` [creatine], the “log P” value (Table 1A) is on record as −3.72 and the “log P” value (Table 9) was −3.72.
With `CC(=O)C(C)=O` [diacetyl], the “log P” value (Table 1A) is reported as −1.34 and the “log P” value (Table 9) was −1.34.
For the molecule `CSC` [dimethyl sulfide], the “log P” value is 0.92 (Table 1A) and 0.92 (Table 9).
On to `CCOC(=O)C(C)C` [ethyl isobutyrate], for which the “log P” value is reported as 1.77 (Table 1A) and 1.77 (Table 9).
With `CCOC(=O)CC(C)C` [ethyl isovalerate], the “log P” value (Table 1A) is 2.26 and the “log P” value (Table 9) is 2.26.
Regarding `CCOC(=O)C(C)O` (stereo not drawn) [ethyl lactate], the “log P” value is, setting by setting: (Table 1A) −0.18; (Table 9) −0.18.
Consider `CCOC(=O)CCC(C)=O` [ethyl levulinate], for which the “log P” value is, setting by setting: (Table 1A) 0.29; (Table 9) 0.29.
For `CCc1occc(=O)c1O` [ethyl maltol], the “log P” value is, setting by setting: (Table 1A) 0.30; (Table 9) 0.30.
`CCOc1cc(C=O)ccc1O` [ethyl vanillin]: the “log P” value is recorded as 1.50 (Table 1A) and 1.50 (Table 9).
For `CC1=C(O)C(=O)C(C)O1` (stereo not drawn) [furaneol], the “log P” value (Table 1A) is listed as 0.82 and the “log P” value (Table 9) was 0.82.
As for `C=C(C)[C@H]1CC=C(C)CC1` [limonene], the “log P” value is recorded as 4.83 (Table 1A) and 4.83 (Table 9).
Turning to `C=CC(C)(O)CCC=C(C)C` (stereo not drawn) [linalool], the “log P” value (Table 9) is 3.38.
`Cc1occc(=O)c1O` [maltol]: the log partition coefficient (log P) is listed as −0.19 (Table 1A) and −0.19 (Table 9).
As for `CO` [methanol], the “log P” value (Table 1A) is recorded as −0.74 and the “log P” value (Table 9) was −0.74.
As for `Cc1ccc(C(C)C)cc1` [p-cymene], the “log P” value reads like this: (Table 1A) 4.10; (Table 9) 4.10.
Take `O=C(O)[C@@H]1CCCN1` [proline]: the “log P” value was −2.15 (Table 1A) and −2.15 (Table 9).
Regarding `CC(=O)CCc1ccc(O)cc1` [raspberry ketone], the “log P” value reads like this: (Table 1A) 1.48; (Table 9) 1.48.
